Columns and labels:
Type in all cases: in vivo
[1] = test system: Echinochloa crus-galli; experiment: Test Example 1: herbicidal effect test by treatment of rice paddy soil (immediately after seeding); conditions: 120 g/10a active ingredient, dry weight vs untreated area, 14 days after treatment
Method in brief: (§1)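 Puddled, fertilized (N:P:K=17:17:17) paddy soil in Wagner pots; seeds sown 0–1 cm deep, flooded to about 3 cm. Emulsifiable formulations diluted in water and dropped into the water immediately after seeding at 120 g active ingredient per 10 ares; greenhouse. Herbicidal rate from dry weight vs untreated at 14 days.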

[2] = test system: Scirpus juncoides; experiment: as above; conditions: 120 g/10a active ingredient, dry weight vs untreated area, 14 days after treatment
Method in brief: as §1

[3] = test system: broad leaf weeds (Lindernia pyxidaria and Monochoria vaginalis); experiment: as above; conditions: 120 g/10a active ingredient, dry weight vs untreated area, 14 days after treatment; for pest or weed control at 1200 g/ha: 336 h
Method in brief: as §1

[4] = test system: Echinochloa crus-galli; experiment: Test Example 2: herbicidal effect test by treatment during growing period in paddy rice cultivation (seven days after seeding); conditions: 120 g/10a active ingredient, assessed 14 days after treatment, dry weight vs untreated area
Method in brief: (§2)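 Greenhouse flooded-pot test, seeds sown in puddled paddy soil; emulsion applied into water 7 d after seeding, 120 g a.i./10 a. Dry-weight-based herbicidal rate at 14 d, n=2.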

[5] = test system: Scirpus juncoides; experiment: as above; conditions: 120 g/10a active ingredient, assessed 14 days after treatment, dry weight vs untreated area
Method in brief: as §2

[6] = test system: broad leaf weeds (Lindernia pyxidaria and Monochoria vaginalis); experiment: as above; conditions: 120 g/10a active ingredient, assessed 14 days after treatment, dry weight vs untreated area; for pest or weed control at 1200 g/ha: 336 h
Method in brief: as §2

[7] = test system: Amaranthus viridis; experiment: Test Example 3: herbicidal effect test by treatment of dry field farming soil (one day after seeding); conditions: 120 g/10a active ingredient, evaluated 14 days after treatment
Method in brief: (§3)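 Compound emulsions are sprayed on the soil surface one day after sowing (120 g a.i. per 10 ares) before weeds emerge. Effect is expressed as percent dry-weight reduction versus untreated controls 14 days post-treatment.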

[8] = test system: Chenopodium album; experiment: as above; conditions: 120 g/10a active ingredient, evaluated 14 days after treatment
Method in brief: as §3

[9] = test system: Echinochloa crus-galli; experiment: as above; conditions: 120 g/10a active ingredient, evaluated 14 days after treatment
Method in brief: as §3

[10] = test system: southern crabgrass; experiment: as above; conditions: 120 g/10a active ingredient, evaluated 14 days after treatment
Method in brief: as §3

[11] = test system: Amaranthus viridis; experiment: Test Example 4: herbicidal effect test by treatment of leave and stem in dry field farming (seven days after seeding); conditions: 120 g/10a active ingredient, emulsion sprayed seven days after seeding, evaluated 14 days after treatment
Method in brief: (§4)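 Weeds were seeded at 20 seeds per species into the top 1 cm of alluvial upland soil in pots, then sprayed 7 days after seeding with water-diluted emulsifiable concentrate at 100 L/10 a, giving 120 g active ingredient/10 a. Duplicate pots; herbicidal rate (%) was 14 days post-treatment, from dry weight versus untreated.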

[12] = test system: Chenopodium album; experiment: as above; conditions: 120 g/10a active ingredient, emulsion sprayed seven days after seeding, evaluated 14 days after treatment
Method in brief: as §4

[13] = test system: Echinochloa crus-galli; experiment: as above; conditions: 120 g/10a active ingredient, emulsion sprayed seven days after seeding, evaluated 14 days after treatment
Method in brief: as §4

[14] = test system: southern crabgrass; experiment: as above; conditions: 120 g/10a active ingredient, emulsion sprayed seven days after seeding, evaluated 14 days after treatment
Method in brief: as §4

SMILES | Herbicidal rate (%) Echinochloa crus-galli [1] | Herbicidal rate (%) Scirpus juncoides [2] | Herbicidal rate (%) Lindernia pyxidaria ([3]; Lindernia pyxidaria) | Herbicidal rate (%) Monochoria vaginalis ([3]; Monochoria vaginalis) | Herbicidal rate (%) Echinochloa crus-galli [4] | Herbicidal rate (%) Scirpus juncoides [5] | Herbicidal rate (%) Lindernia pyxidaria ([6]; Lindernia pyxidaria) | Herbicidal rate (%) Monochoria vaginalis ([6]; Monochoria vaginalis) | herbicidal rate, Amaranthus viridis [7] | herbicidal rate, Chenopodium album [8] | herbicidal rate, Echinochloa crus-galli [9] | herbicidal rate, southern crabgrass [10] | herbicidal effect (herbicidal rate), Amaranthus viridis [11] | herbicidal effect (herbicidal rate), Chenopodium album [12] | herbicidal effect (herbicidal rate), Echinochloa crus-galli [13] | herbicidal effect (herbicidal rate), southern crabgrass [14] | other results
CCC(C)n1oc(=O)c(Cc2ccccc2N(C(=O)OCc2ccccc2)S(=O)(=O)C(F)(F)F)c1C (single isomer, unassigned) [1-783 (TLC bottom)] | 90% | 90% | 90% | 90% | 90% | 90% | 90% | 90% | 90% | 90% | 90% | 90% | 40% | 40% | 90% | 90% | 
Cc1c(Cc2ccccc2N(S(=O)(=O)C(F)(F)F)S(=O)(=O)C(F)(F)F)c(=O)on1C(C)C1CC1 (stereo not shown) [Compound 1-992] | 100% | 100% | 90% | 100% | 90% | 80% | 50% | 90% | 40% | 40% | 90% | 90% | 40% | 40% | 90% | 50% | 
Cc1c(Cc2ccccc2N(S(=O)(=O)C(F)(F)F)S(=O)(=O)C(F)(F)F)c(=O)on1C(C)(C)C [Compound 1-963, N-[2-[(2-tert-butyl-3-methyl-5-oxo-isoxazol-4-yl)methyl]phenyl]-1,1,1-trifluoro-N-(trifluoromethylsulfonyl)methanesulfonamide] |  |  |  |  |  |  |  |  |  |  |  |  |  |  |  |  | pest or weed control at 1200 g/ha ([1]; in Echinochloa crus-galli, 336 h, read-out: Herbicidal rate (%) Echinochloa crus-galli): 90%; pest or weed control at 1200 g/ha ([2]; in Schoenoplectiella juncoides, 336 h, read-out: Herbicidal rate (%) Scirpus juncoides): 90%; pest or weed control at 1200 g/ha ([3]; Monochoria vaginalis, read-out: Herbicidal rate (%) Monochoria vaginalis): 90%; pest or weed control at 1200 g/ha ([3]; in Lindernia, Lindernia pyxidaria, read-out: Herbicidal rate (%) Lindernia pyxidaria): 90%; pest or weed control at 1200 g/ha ([4]; Echinochloa crus-galli, 336 h, read-out: herbicidal rate (%) Echinochloa crus-galli): 90%; pest or weed control at 1200 g/ha ([5]; Schoenoplectiella juncoides, 336 h, read-out: herbicidal rate (%) Scirpus juncoides): 90%; pest or weed control at 1200 g/ha ([6]; Lindernia pyxidaria, read-out: herbicidal rate (%) Lindernia pyxidaria): 90%; pest or weed control at 1200 g/ha ([6]; Monochoria vaginalis, read-out: herbicidal rate (%) Monochoria vaginalis): 90%; pest or weed control at 1200 g/ha ([7]; Amaranthus viridis, 336 h, read-out: herbicidal rate, Amaranthus viridis): 90%; pest or weed control at 1200 g/ha ([8]; Chenopodium album, 336 h, read-out: herbicidal rate, Chenopodium album): 90%; pest or weed control at 1200 g/ha ([9]; Echinochloa crus-galli, 336 h, read-out: herbicidal rate, Echinochloa crus-galli): 90%; pest or weed control at 1200 g/ha ([10]; Digitaria ciliaris, 336 h, read-out: herbicidal rate, southern crabgrass): 90%; pest or weed control at 1200 g/ha ([11]; Amaranthus viridis, 336 h, read-out: herbicidal effect (herbicidal rate), Amaranthus viridis): 40%; pest or weed control at 1200 g/ha ([12]; Chenopodium album, 336 h, read-out: herbicidal effect (herbicidal rate), Chenopodium album): 40%; pest or weed control at 1200 g/ha ([13]; Echinochloa crus-galli, 336 h, read-out: herbicidal effect (herbicidal rate), Echinochloa crus-galli): 90%; pest or weed control at 1200 g/ha ([14]; Digitaria ciliaris, 336 h, read-out: herbicidal effect (herbicidal rate), southern crabgrass): 90%
CCC(CC)n1oc(=O)c(Cc2ccccc2N(C(=O)C2CC2)S(=O)(=O)C(F)(F)F)c1C [Compound 1-405] | 90% | 90% | 90% | 90% | 90% | 90% | 90% | 90% | 90% | 90% | 90% | 90% | 40% | 40% | 90% | 90% | 
CCC(C)Cn1oc(=O)c(Cc2ccccc2N(C(=O)OCC(C)C)S(=O)(=O)C(F)(F)F)c1C (stereo not shown) [Compound 1-674] | 100% | 90% | 90% | 90% | 100% | 90% | 70% | 90% | 40% | 40% | 80% | 50% | 60% | 50% | 70% | 80% | 
CCC(=O)N(c1ccccc1Cc1c(C)n(C(C)(C)C)oc1=O)S(=O)(=O)C(F)(F)F [Compound 1-315] | 90% | 90% | 90% | 90% | 90% | 90% | 90% | 90% | 90% | 90% | 90% | 90% | 40% | 40% | 90% | 90% | 
CCCC(CC)n1oc(=O)c(Cc2ccccc2N(S(=O)(=O)C(F)(F)F)S(=O)(=O)C(F)(F)F)c1C (stereo not shown) [Compound 1-971] | 100% | 100% | 100% | 100% | 100% | 90% | 80% | 90% | 80% | 60% | 90% | 80% | 40% | 50% | 90% | 90% | 

Source: patent publication US11109593B2, “Isoxazolin-5-one derivative and herbicide containing same as active ingredient” (HOKKO CHEMICAL INDUSTRY CO., LTD., priority 2017, dated 2021)
